Reference: BindingDB's records for doi:10.1016/S1074-5521(99)80072-6 (Ligand Pharmaceuticals Inc, 1999)
pIC50, pKi: −log10 of the molar value.

Assays:
[1] = molecular target: T1, Vitamin D3 receptor (Homo sapiens, UniProt P11473); assay: VDR Ligand-Binding Assay; details: pH 7.5; 4 °C
T1 sequence (P11473 whole entry): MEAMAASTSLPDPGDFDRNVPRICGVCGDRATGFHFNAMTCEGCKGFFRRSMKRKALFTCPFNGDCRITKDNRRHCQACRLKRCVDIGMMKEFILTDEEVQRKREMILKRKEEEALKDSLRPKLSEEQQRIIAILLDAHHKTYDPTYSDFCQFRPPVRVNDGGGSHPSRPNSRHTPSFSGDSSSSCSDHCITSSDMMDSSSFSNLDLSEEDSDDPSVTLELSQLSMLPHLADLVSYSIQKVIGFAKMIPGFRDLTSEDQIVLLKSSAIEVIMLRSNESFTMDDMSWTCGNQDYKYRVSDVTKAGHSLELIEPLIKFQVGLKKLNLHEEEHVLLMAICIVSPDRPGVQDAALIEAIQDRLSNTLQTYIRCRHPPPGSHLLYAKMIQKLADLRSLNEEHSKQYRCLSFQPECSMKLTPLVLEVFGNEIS
Description: VDR in vitro ligand-binding assay using human VDR constructed into a yeast expression plasmid.

[2] = molecular target: T2, Vitamin D-binding protein (Homo sapiens, UniProt V9HWI6); assay: DBP Binding Assay; details: pH 7.4; 4 °C
T2 sequence (V9HWI6 whole entry): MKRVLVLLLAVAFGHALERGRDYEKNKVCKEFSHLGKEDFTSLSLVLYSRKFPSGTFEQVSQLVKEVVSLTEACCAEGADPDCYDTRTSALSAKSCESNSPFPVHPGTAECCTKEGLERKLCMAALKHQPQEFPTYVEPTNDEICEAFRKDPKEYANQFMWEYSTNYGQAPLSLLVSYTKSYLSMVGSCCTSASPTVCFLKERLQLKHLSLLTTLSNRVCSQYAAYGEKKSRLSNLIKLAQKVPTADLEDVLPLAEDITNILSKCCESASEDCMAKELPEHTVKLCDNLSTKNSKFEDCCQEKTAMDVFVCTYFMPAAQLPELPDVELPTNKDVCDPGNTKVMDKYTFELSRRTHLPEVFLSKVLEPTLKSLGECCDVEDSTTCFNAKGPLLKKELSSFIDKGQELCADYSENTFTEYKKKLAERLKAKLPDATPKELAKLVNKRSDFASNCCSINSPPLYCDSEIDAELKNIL
Description: (§1) DBP competition binding assay were done using human serum (Scantibodies) or rat serum (Gibco-BRL).

[3] = molecular target: T3, Vitamin D-binding protein (Rattus norvegicus, UniProt P04276); assay: DBP Binding Assay; details: pH 7.4; 4 °C
T3 sequence (P04276 whole entry): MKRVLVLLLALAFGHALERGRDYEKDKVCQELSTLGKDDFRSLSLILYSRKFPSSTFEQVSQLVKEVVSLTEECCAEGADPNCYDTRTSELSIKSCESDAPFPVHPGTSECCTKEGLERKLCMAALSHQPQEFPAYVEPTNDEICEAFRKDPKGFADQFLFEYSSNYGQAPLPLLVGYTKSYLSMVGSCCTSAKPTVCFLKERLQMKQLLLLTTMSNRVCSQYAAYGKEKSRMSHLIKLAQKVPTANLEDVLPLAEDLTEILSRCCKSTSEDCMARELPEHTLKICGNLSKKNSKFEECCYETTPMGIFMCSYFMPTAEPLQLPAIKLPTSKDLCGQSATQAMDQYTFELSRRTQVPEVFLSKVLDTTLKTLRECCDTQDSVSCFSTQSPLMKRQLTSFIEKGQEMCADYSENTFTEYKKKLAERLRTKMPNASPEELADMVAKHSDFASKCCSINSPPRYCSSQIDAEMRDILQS
Description: as §1

Structure (SMILES)	pKi [1]	pIC50 [2]	pIC50 [3]
C=C1/C(=C\C=C\C2CCC3(C)C(CCC3C(C)CCCC(C)(C)O)C2)C[C@@H](C)C[C@@H]1C (some centres not stated) [1,25(OH)2D3]	9.30	6.70	7.40
CC(C)(C)C(=O)COc1ccc(C(C)(C)c2ccc(OCC(=O)C(C)(C)C)c(Cl)c2)cc1Cl [LG190090]	< 6.00	< 6.00	
Cc1cc(C2(c3ccc(OCC(=O)C(C)(C)C)c(C)c3)CCCCC2)ccc1OCC(=O)C(C)(C)C [LG190119]	< 6.00	< 6.00	
CCC(CC)(c1ccc(OCC(=O)C(C)(C)C)c(C)c1)c1ccc(OCC(=O)C(C)(C)C)c(C)c1 [LG190155]	< 6.00	< 6.00	
CCC(CC)(c1ccc(OCC(=O)C(C)(C)C)c(C)c1)c1ccc(OCC2CO2)c(C)c1 (configuration not stated) [LG190176]	< 6.00	< 6.00	
CCC(CC)(c1ccc(OCC(=O)C(C)(C)C)c(C)c1)c1ccc(OCC(O)CO)c(C)c1 (configuration not stated) [LG190178]		< 6.00	
